What was measured:
[1] = Pharmacokinetics comparative experiment, plasma concentration by LC/MS2 after capsule intragastric administration; format: in vivo; conditions: SD rats, 133 mg/kg, solid capsule intragastric administration
Text: By means of a pharmacokinetics comparative experiment, the […] feature of the crystalline form I provided herein after administration is compared with that of the amorphous solid of Example 1 as a reference sample.
SD rats (all male, weight of 260-280 g) were randomizely grouped, each group of 3 animals. The medication group received the crystalline form compound (No. S08S02S15a) of the Example 2, the crystalline form compound (No. S08S04S22a) of the Example 7, and the crystalline form compound (No. S08S19S24a) of the Example 8, respectively, and the control group received the reference sample (the amorphous solid of Example 1). The animals were fasted for 12 hours before administration, and the dosage of administration was 133 mg/kg. The corresponding medications were administered by intragastric administration using a solid capsule administration system (Size 9el Rat Box+Foam+Funnel+Syringe). Rat plasma samples were collected before administration, and 0.08, 0.16, 0.33, 0.5, 1, 1.5, 2, 3, 4, 6, and 8 h after administration, respectively. After heparin tube anticoagulation, centrifugation was performed at 5000 rpm for 10 min at a temperature of 4° C. A plasma supernatant sample was taken and subjected to protein precipitation using methanol, and then, the medication concentration in the plasma was monitored by LC/MS2.

[2] = Thermogravimetric analysis (TGA); format: physicochemical; conditions: for slow weight loss (TGA): before about 120° C., showing that it is an anhydrate; for decomposition temperature (TGA): nitrogen, ramp 10° C./min
Experimental: The thermogravimetric analyzer (TGA) involved herein is Q500TGA from TA Instruments; detection conditions: a platinum crucible, a protective atmosphere of nitrogen, a gas flow rate of 40 mL/min; and the following detection method: a Hi-Res sensitivity of 3.0, ramp 10.00° C./min, res 5.0 to 120.00° C., and ramp 10.00° C./min to 350° C.

[3] = compared with amorphous solid of Example 1

exposure AUC [1, 3]: effectively improve | half-life period T1/2 [1, 3]: effectively improve | maximum blood concentration Cmax [1, 3]: effectively improve | medication dissolution ([1]; compared with reference sample (amorphous solid of Example 1), FIGS. 21-24): improving | slow weight loss (TGA) ([2]; listed as Example 2): about 0.5 wt % | slow weight loss (TGA) ([2]; listed as Example 6): about 0.5 wt % | slow weight loss (TGA) ([2]; listed as Example 7): about 1.4 wt % | slow weight loss (TGA) ([2]; listed as Example 8): about 0.2 wt % | slow weight loss (TGA) ([2]; listed as Example 9): about 1.2 wt % | slow weight loss (TGA) ([2]; listed as Example 14): about 0.5 wt % | slow weight loss (TGA) ([2]; listed as Example 24): about 0.6 wt % | decomposition temperature (TGA) ([2]; listed as Example 2): about 307 °C | decomposition temperature (TGA) ([2]; listed as Example 6): about 300 °C | decomposition temperature (TGA) ([2]; listed as Example 7): about 302 °C | decomposition temperature (TGA) ([2]; listed as Example 8): about 314 °C | decomposition temperature (TGA) ([2]; listed as Example 9): about 303 °C | decomposition temperature (TGA) ([2]; listed as Example 14): about 310 °C | decomposition temperature (TGA) ([2]; listed as Example 24): about 317 °C
SMILES: CC(C)[C@H](N)C(=O)NCCCS(=O)(=O)O [Crystalline Form I, 3-((L-valyl)amino)-1-propanesulfonic acid]

From patent US12338205B2, “Crystalline form of 3-((L-valyl) amino)-1-propanesulfonic acid” (RISEN (SUZHOU) PHARMA TECH CO., LTD., priority 2018, dated 2025)
